Results as given in patent US20260125400A1, “TYK2 DEGRADERS AND USES THEREOF” (Kymera Therapeutics, Inc., priority 2023, published 2026).

Target: T1, TYK2 (Homo sapiens, UniProt P29597)
T1 construct: Degradation of TYK2 in cells was quantitatively measured using Meso Scale Discovery (MSD) technology; endogenous in cells; host or cells: OCI-LY10
Test: TYK2 MSD degradation in OCI-LY10 cells
Format: cell-based
Details: TYK2 degradation in OCI-LY10 cells, 4 to 24 hours incubation; for DC50: read-out: TYK2 MSD OCI-LY10 Rel-DC50
Method in brief: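 OCI-LY10 cells were treated with 9-dose 1:3 series (top 1 to 10 μM final) for 4 to 24 hours at 37° C. Lysate TYK2 quantified by MSD sandwich immunoassay; DC50 and Dmax from four-parameter inhibitor vs. response fit.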

T1 sequence (P29597 whole entry): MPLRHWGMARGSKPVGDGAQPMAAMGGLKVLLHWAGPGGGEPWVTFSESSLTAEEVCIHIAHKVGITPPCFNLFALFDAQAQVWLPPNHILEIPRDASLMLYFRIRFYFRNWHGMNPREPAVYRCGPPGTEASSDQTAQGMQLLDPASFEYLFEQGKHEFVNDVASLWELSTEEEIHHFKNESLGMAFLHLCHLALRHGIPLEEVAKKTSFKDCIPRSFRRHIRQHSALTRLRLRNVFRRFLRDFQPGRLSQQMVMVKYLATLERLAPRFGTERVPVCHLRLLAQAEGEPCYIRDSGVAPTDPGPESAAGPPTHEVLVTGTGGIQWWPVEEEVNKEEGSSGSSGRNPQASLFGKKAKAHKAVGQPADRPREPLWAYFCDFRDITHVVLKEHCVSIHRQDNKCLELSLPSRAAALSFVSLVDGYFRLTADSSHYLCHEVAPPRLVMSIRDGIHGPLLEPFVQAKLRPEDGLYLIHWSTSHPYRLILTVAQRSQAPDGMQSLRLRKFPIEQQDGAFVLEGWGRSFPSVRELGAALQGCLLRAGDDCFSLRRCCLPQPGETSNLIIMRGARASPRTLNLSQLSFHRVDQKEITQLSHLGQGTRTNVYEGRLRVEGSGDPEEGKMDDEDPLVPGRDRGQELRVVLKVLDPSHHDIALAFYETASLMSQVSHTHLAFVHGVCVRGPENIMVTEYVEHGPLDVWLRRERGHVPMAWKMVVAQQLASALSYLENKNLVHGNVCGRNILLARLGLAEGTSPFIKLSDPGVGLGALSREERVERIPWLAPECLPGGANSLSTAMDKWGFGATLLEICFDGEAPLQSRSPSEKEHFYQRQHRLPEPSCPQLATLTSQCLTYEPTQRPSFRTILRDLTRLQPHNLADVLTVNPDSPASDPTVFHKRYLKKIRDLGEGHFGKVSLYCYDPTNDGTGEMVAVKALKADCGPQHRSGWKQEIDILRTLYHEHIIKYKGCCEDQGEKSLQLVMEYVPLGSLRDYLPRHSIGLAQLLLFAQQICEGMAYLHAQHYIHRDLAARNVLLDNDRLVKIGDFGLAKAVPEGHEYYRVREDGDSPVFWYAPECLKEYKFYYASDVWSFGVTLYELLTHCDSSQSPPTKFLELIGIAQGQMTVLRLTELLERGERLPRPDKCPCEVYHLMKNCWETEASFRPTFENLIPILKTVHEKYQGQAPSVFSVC

Row | SMILES | TYK2 MSD OCI-LY10 Dmax % | DC50 [nM]
1 | CNc1cc(N2CCc3c(-c4ncc([C@@H](C)N5CC6(CCN(C(=O)c7cc(C)c(Cl)c(N8CCC(=O)NC8=O)c7)CC6(F)F)C5)cc4F)cccc32)nn2c(C(=O)N[C@@H]3CC[C@H]3OC)cnc12 [I-1144] | B (B (90 to >75%)) | < 1
2 | CNc1cc(N2CCc3c(CN4CC[C@@H](N5CCC6(CCN(C(=O)c7cc(Cl)c(Cl)c(N8CCC(=O)NC8=O)c7)CC6)CC5)C(F)(F)C4)cccc32)nn2c(C(=O)N[C@@H]3CC[C@H]3OC)cnc12 [I-1145] | A (A (>90%)) | < 1
3 | CNc1cc(N2CCc3c(CN4CC[C@H](N5CCC6(CCN(C(=O)c7cc(Cl)c(Cl)c(N8CCC(=O)NC8=O)c7)CC6)CC5)C(F)(F)C4)cccc32)nn2c(C(=O)N[C@@H]3CC[C@H]3OC)cnc12 [I-1146] | A (A (>90%)) | < 1
4 | CNc1cc(N2CCc3c(CN4CC[C@@H](N5CCC6(CCN(C(=O)c7cc(N8CCC(=O)NC8=O)c(Cl)cn7)CC6)CC5)C(F)(F)C4)cc(F)cc32)nn2c(C(=O)N[C@@H]3CC[C@H]3OC)cnc12 [I-1147] | A (A (>90%)) | < 1
5 | CNc1cc(N2CCc3c(CN4CC[C@H](N5CCC6(CCN(C(=O)c7cc(N8CCC(=O)NC8=O)c(Cl)cn7)CC6)CC5)C(F)(F)C4)cc(F)cc32)nn2c(C(=O)N[C@@H]3CC[C@H]3OC)cnc12 [I-1148] | B (B (90 to >75%)) | < 1
6 | CNc1cc(N2CCc3c(-c4ncc(CN5CC6(CCN(C(=O)c7cc(N8CCC(=O)NC8=O)c(Cl)cn7)CC6(F)F)C5)cc4F)cc(F)cc32)nn2c(C(=O)N[C@@H]3CC[C@H]3OC)cnc12 [I-1149] | A (A (>90%)) | < 1
7 | CNc1cc(N2CCc3c(-c4ncc(CN5CC6(CCN(C(=O)c7cc(N8CCC(=O)NC8=O)c(Cl)c(C)n7)CC6(F)F)C5)cc4F)cc(F)cc32)nn2c(C(=O)N[C@@H]3C[C@@H]3F)cnc12 [I-1150] | A (A (>90%)) | < 1
8 | CNc1cc(N2CCc3c(-c4ncc(CN5CC6(CCN(C(=O)c7cc(N8CCC(=O)NC8=O)c(Cl)c(C)n7)CC6(F)F)C5)cc4F)cc(F)cc32)nn2c(C(=O)N[C@@H]3CC[C@H]3OC)cnc12 [I-1151] | A (A (>90%)) | < 1
9 | CNc1cc(N2CCc3c(-c4ncc(CN5CC6(CCN(C(=O)c7cc(N8CCC(=O)NC8=O)c(F)cn7)CC6(F)F)C5)cc4F)cc(F)cc32)nn2c(C(=O)N[C@@H]3C[C@@H]3F)cnc12 [I-1153] | B (B (90 to >75%)) | < 10
10 | CNc1cc(N2CCc3c(-c4ncc(CN5CC6(CCN(C(=O)c7ccc(Cl)c(N8CCC(=O)NC8=O)c7)CC6(F)F)C5)cc4F)cccc32)nn2c(C(=O)N[C@@H]3CC[C@H]3OC)cnc12 [I-1154] | A (A (>90%)) | < 1
11 | CNc1cc(N2CCc3c(-c4ncc(CN5CC6(CCN(C(=O)c7cc(N8CCC(=O)NC8=O)c(F)cn7)CC6(F)F)C5)cc4F)cc(F)cc32)nn2c(C(=O)N[C@@H]3CC[C@H]3OC)cnc12 [I-1155] | B (B (90 to >75%)) | < 1
12 | CNc1cc(N2CCc3c(CN4CCC(N5CCC6(CC5)CN(C(=O)c5cc(N7CCC(=O)NC7=O)c(Cl)c(C)n5)C6)C(F)(F)C4)cccc32)nn2c(C(=O)N[C@@H]3CC[C@H]3OC)cnc12 (some centres unmarked) [I-1156] | B (B (90 to >75%)) | < 1
13 | CNc1cc(N2CCc3c(CN4CCC(N5CCC6(CCN(C(=O)c7cc(N8CCC(=O)NC8=O)c(Cl)c(C)n7)CC6)CC5)C(F)(F)C4)cccc32)nn2c(C(=O)N[C@@H]3CC[C@H]3OC)cnc12 (some centres unmarked) [I-1157] | A (A (>90%)) | < 1
14 | CNc1cc(N2CCc3c(CN4CCC(N5CCC6(CC5)CN(C(=O)c5cc(N7CCC(=O)NC7=O)c(Cl)cn5)C6)C(F)(F)C4)cccc32)nn2c(C(=O)N[C@@H]3CC[C@H]3OC)cnc12 (some centres unmarked) [I-1158] | A (A (>90%)) | < 1
15 | CNc1cc(N2CCc3c(CN4CCC(N5CCC6(CCN(C(=O)c7cc(N8CCC(=O)NC8=O)c(Cl)c(C)n7)CC6)CC5)C(F)(F)C4)cc(F)cc32)nn2c(C(=O)N[C@@H]3CC[C@H]3OC)cnc12 (some centres unmarked) [I-1159] | A (A (>90%)) | < 1
16 | CNc1cc(N2CCc3c(-c4ccc(CN5CCN(C6CCN(C(=O)c7cc(C)c(Cl)c(N8CCC(=O)NC8=O)c7)CC6(F)F)CC5)cn4)cccc32)nn2c(C(=O)N[C@@H]3CC[C@H]3OC)cnc12 (some centres unmarked) [I-1161] | B (B (90 to >75%)) | < 1
